Data: patent publication US20220062299A1, “USE OF GLUCOCORTICOID STEROIDS IN PREVENTING AND TREATING CONDITIONS OF MUSCLE WASTING, AGING AND METABOLIC DISORDER” (NORTHWESTERN UNIVERSITY, priority 2018, published 2022)

Columns and labels:
[1] = tested on: GRE-KRE genomic sites (Mef2C, Bckdha, Pck1, Nmnat3); assay: Luciferase reporter experiments in electroporated mdx myofibers; assay type: in vivo, mouse; settings: prednisone pulse 1 mg/kg combined with Klf15 overexpression
Description: Luciferase experiments in live myofibers. Luciferase plasmids containing regulatory fragments were obtained cloning genomic sequences in the pGL4.23 backbone (#E8411; Promega, Madison, Wis.) using the KpnI-XhoI sites upstream of the minimal promoter site. Fragments were cloned conserving the genomic orientation with regards to transcriptional orientation, adding KpnI and XhoI tails to the appropriate extremities via Phusion PCR. Wildtype fragments […] were cloned from wildtype C57Bl/6J genomic DNA, while mutated fragments (Δ sites) were amplified from ad-hoc synthetized DNA oligonucleotides, using genomic sequences from the C57Bl/6J genomic background (see Table 5 for a complete list of sequences). Flexor digitorum brevis (FDB) fibers were transfected by in vivo electroporation. Methods were described previously in (DiFranco et al., 2009) with modifications described in (Demonbreun and McNally, 2015). Briefly, the hindlimb footpad was injected with 10 μl hyaluronidase (8 units) (Cat #H4272, Sigma, St. Louis, Mo.). […] Ex vivo luciferase assay was performed on whole, electroporated FDB muscles. […] Luminescence was recorded at the Synergy HTX multi-mode 96-well plate reader (BioTek®, Winooski, Vt.). […] Results are expressed as fold change to average vehicle. All luciferase quantitation assays were conducted blinded to treatment groups. […]

mdx mice = assay: Morbidity, muscle mass, muscle function, plethysmography, echocardiography, mdx mice, 40 weeks; assay type: in vivo, mouse; settings: weekly prednisone
Procedure: Histology. Excised tissues (muscles, omental fat, heart) were placed in 10% formaldehyde (Cat #245-684; Fisher Scientific, Waltham, Mass.) for histologic processing. Seven μm sections from the center of paraffin-embedded muscles were stained with hematoxylin and eosin (H&E; cat #12013B, 1070C; Newcomer Supply, Middleton, Wis.) and Masson's trichrome (Cat #HT-15; Sigma-Aldrich; St. Louis, Mo.). Myofiber/adipocyte CSA quantitation was conducted on 400 myofibers/adipocytes per tissue per mouse. Imaging was performed using a Zeiss Axio Observer A1 microscope, using 10× and 20× (short-range) objectives. Brightfield pictures were acquired via Gryphax software (version 1.0.6.598; Jenoptik, Jena, Germany). Area quantitation was performed by means of ImageJ (Schneider et al., 2012). Sample processing, imaging and CSA quantitation were conducted blinded to treatment groups.
Muscle function, whole-body plethysmography, echocardiography. Forelimb grip strength was monitored using a meter (Cat #1027SM; Columbus Instruments, Columbus, Ohio) blinded to treatment groups. Animals performed ten pulls with 5 seconds rest on a flat surface between pulls. Immediately before sacrifice, in situ tetanic force from tibialis anterior muscle was measured using a Whole Mouse Test System (Cat #1300A; Aurora Scientific, Aurora, ON, Canada) with a 1N dual-action lever arm force transducer (3000-LR, Aurora Scientific, Aurora, ON, Canada) in anesthetized animals (0.8 I/min of 1.5% isoflurane in 100% O2). […] Time of contraction was assessed as time to max tetanic value within the 0.0-0.5 sec range of each tetanic contraction, while time of relaxation was assessed as time to 90% min tetanic value within the 0.5-0.8 sec range of every tetanus. […] Data was recorded for a total of 15 minutes broken into 3 consecutive 5-minute periods. […] Cardiac function was assessed by echocardiography, which was conducted under anesthesia (0.8 L/min of 1.5% vaporized isoflurane in 100% O2) on mice between 2 and 5 days before sacrifice. […]

C[C@]12C=CC(=O)C=C1CC[C@@H]1[C@@H]2C(=O)C[C@@]2(C)[C@H]1CC[C@]2(O)C(=O)CO [prednisone, Prednisone]
Fluc reporter activity of GRE-KRE constructs [1]: additive effect | morbidity (mdx mice; mdx male mice, 40 weeks from 6 weeks of age): improved | muscle mass and force (mdx mice; mdx mice, 40 weeks): increased | performance of limb muscles, respiratory muscles, and heart (mdx mice; mdx mice, 40 weeks): improved
